Assays:
[1] = target: T1, human TRPV1 heterologously expressed in Chinese hamster ovary (CHO) cells (Homo sapiens, UniProt Q8NER1); experiment: binding competition assay with [3H]-resiniferatoxin; conditions: for fold weaker binding affinity compared to 1: ratio of Ki versus compound 1
[2] = target: T1, human TRPV1 heterologously expressed in Chinese hamster ovary (CHO) cells; assay type: cell-based; conditions: for fold weaker antagonistic potency compared to 1: ratio of Ki(ant) versus compound 1

T1 sequence (Q8NER1 whole entry): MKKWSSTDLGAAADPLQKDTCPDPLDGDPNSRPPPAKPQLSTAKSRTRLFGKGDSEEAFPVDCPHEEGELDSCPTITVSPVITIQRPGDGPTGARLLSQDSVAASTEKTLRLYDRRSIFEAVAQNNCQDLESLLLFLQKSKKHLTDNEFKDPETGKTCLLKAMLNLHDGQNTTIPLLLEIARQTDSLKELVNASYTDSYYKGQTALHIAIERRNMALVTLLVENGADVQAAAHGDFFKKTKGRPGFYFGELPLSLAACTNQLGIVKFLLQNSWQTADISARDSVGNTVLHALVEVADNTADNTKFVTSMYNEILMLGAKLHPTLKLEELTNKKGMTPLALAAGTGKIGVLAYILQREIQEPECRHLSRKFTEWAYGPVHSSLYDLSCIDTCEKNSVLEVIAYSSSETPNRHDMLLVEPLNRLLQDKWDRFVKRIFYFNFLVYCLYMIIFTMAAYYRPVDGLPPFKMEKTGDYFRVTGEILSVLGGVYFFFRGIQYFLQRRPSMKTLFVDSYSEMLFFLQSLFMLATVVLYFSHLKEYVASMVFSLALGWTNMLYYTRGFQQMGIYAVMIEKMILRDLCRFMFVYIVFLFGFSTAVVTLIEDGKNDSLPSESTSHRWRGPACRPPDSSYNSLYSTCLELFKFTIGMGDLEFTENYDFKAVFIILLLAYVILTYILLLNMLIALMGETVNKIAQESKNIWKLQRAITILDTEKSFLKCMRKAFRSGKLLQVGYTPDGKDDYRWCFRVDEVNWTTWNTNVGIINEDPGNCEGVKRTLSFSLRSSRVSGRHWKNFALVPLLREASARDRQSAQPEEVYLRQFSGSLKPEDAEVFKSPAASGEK

Structure (SMILES)	fold weaker binding affinity compared to 1 [1] [fold]	fold weaker antagonistic potency compared to 1 [2] [fold]	also measured
CC1CCN(c2nc(C(F)(F)F)ccc2CNC(=O)Nc2ccc(NS(C)(=O)=O)c(F)c2)CC1 [Compound 21]	11	67	–
CC1CCN(c2nc(C(F)(F)F)ccc2CNC(=O)C(C)c2ccc(CNS(C)(=O)=O)c(F)c2)CC1 (stereo not shown) [Compound 16]	29	12	–
Cc1cccc(N(C(=O)NCc2ccc(C(F)(F)F)nc2N2CCC(C)CC2)c2ccc(NS(C)(=O)=O)c(F)c2)c1 [Compound 42]	–	–	extent of antagonism, 15 min pre-incubation ([2]; cells incubated with compound 15 min before challenge with capsaicin): full antagonism
CC1CCN(c2nc(C(F)(F)F)ccc2CCNC(=O)C(C)c2ccc(NS(C)(=O)=O)c(F)c2)CC1 (stereo not shown) [Compound 11]	7	43	–
CC1CCN(c2nc(C(F)(F)F)ccc2CCNC(=O)Nc2ccc(NS(C)(=O)=O)c(F)c2)CC1 [Compound 22]	–	–	character of antagonism ([2]; capsaicin stimulated 45Ca2+ uptake): partial antagonist
CC1CCN(c2nc(C(F)(F)F)ccc2CNC(=O)Nc2ccc(CNS(C)(=O)=O)c(F)c2)CC1 [Compound 27]	–	–	fold increase in binding affinity compared to 21 ([1]; ratio of Ki versus compound 21): approximately 12 fold; fold increase in antagonistic potency compared to 21 ([2]; ratio of Ki(ant) versus compound 21): approximately 12 fold

From paper PMC6957248 (Bioorganic & medicinal chemistry letters, 2016)
